Measurements published in patent publication US20250051277A1, “DELIVERY OF THERAPEUTIC ALKALOID COMPOUNDS” (Sensorium Therapeutics, Inc., priority 2021, published 2025).
Where two headings read alike, the source gives them in different places.

Key:
[1] = in vivo; cited from earlier work
[2] = Plasma Stability Assay of Example A3, human plasma; settings: 5 μM, 37° C., % of prodrug compound remaining
[3] = Plasma Stability Assay of Example A4, rat plasma; settings: 37° C., 10 μM
[4] = 2 mg/kg iv of labelled compound, rat
Method: Brain samples were homogenized with PBS (W/V, 1:3). Plasma/brain samples were mixed with acetonitrile containing internal standard. The samples were vortexed then centrifuged at 4 degrees Celsius for 15 minutes. The supernatant was diluted with water (1:2 V/V) and analyzed by LC/MS/MS for quantitative analysis. […] Area under the curve (AUC) was calculated and divided by dose to account for molecular weight difference of prodrug and metabolite (AUC/D).

[5] = Hydrolysis Assay of Example A1 (conversion by LCMS); format: physicochemical; settings: for Conversion (%) / Notes (hydrolysis): 0.5 mM, 0-24 h
[6] = Method: Male C57/BL6 mice were used to evaluate each compound, with n=3 mice/time point.
Animals were administered through intravenous route with solution formulation at 2 mg/kg dose. […] Following blood collection, immediately, animals were sacrificed, and vena-cava was cut open and blood was drained. […] Brain samples were collected from set of three mice at each time point. […] Brain samples were homogenized using 2 volumes of ice-cold PBS (pH-7.4) of brain weight. […] Concentrations of compound (or compound and metabolite) in mouse plasma and brain samples were determined by fit for purpose LC-MS/MS method.

[7] = Oral dose pharmacokinetic study in mice (10 mg/kg); format: in vivo, male C57BL/6 mice
Excerpt: The formulation vehicle used was normal saline.

[8] = Pharmacokinetics of 043 and 001 in mice after oral 043 (75 mg/kg); format: in vivo, male C57BL/6 mice; settings: analyte = label, single oral administration of 043, 75 mg/kg, male C57BL/6 mice
Method: Total twelve male mice were used in this study. […] The formulation vehicle used was normal saline.
The plasma and brain concentration-time data of 043 and 001 was used for the pharmacokinetic analysis.
The extraction procedure for plasma/brain samples and the spiked plasma/brain calibration standards were identical:
A 25 μL of study sample plasma/brain (dilution applied to some samples) or spiked plasma calibration standard was added to individual pre-labeled micro-centrifuge tubes followed by 100 μL of internal standard prepared in acetonitrile (Glipizide-500 ng/mL) was added except for blank, where 100 μL of acetonitrile was added. Samples were vortexed for 5 minutes. Samples were centrifuged for 10 minutes at a speed of 4000 rpm at 4° C. Following centrifugation, 100 μL of clear supernatant was transferred in 96 well plates and analyzed using LC-MS/MS.

[9] = Plasma Stability Assay of Example A3, mouse plasma; settings: 5 μM, 37° C., % of prodrug compound remaining
[10] = Plasma Stability Assay of Example A4, human plasma; settings: 37° C., 10 μM
Method: 50 μL aliquots of positive controls and test compounds spiked into rat or human plasma (n=2) were added to a pre-warmed plate (37° C.) and shaken at 50 rpm. At each respective time point, the reaction was stopped by adding 500 μL of acetonitrile containing internal standards (100 nM aprozolam, 200 nM caffeine, 100 nM tolbutamide). All samples were vortexed for 10 minutes, followed by centrifugation at 3,220 g for 30 minutes to precipitate proteins. 100 μL of the supernatant is transferred to a new plate. The supernatant will be diluted with ultrapure water according to the LC-MS signal response and peak shape.

[11] = 2 mg/kg iv of labelled compound, mice
[12] = 10 mg/kg po of labelled compound, mice

(−) mesembrine
half-life in plasma [1]: less than 2 hours

COc1ccc([C@@]23CCC(=O)C[C@@H]2N(C)CC3)cc1OC [Compound 001, mesembrine, reference compound]
Human Plasma Prodrug (%) ([2]; 0 min): 100.0%
Human Plasma Prodrug (%) ([2]; 15 min): >99%
Human Plasma Prodrug (%) ([2]; 30 min): >99%
Human Plasma Prodrug (%) ([2]; 60 min): >99%
Human Plasma Prodrug (%) ([2]; 120 min): >99%
Human Plasma Prodrug (%) ([2]; 240 min): >99%
Compound 001 (%) (metabolite mesembrine), Rat Plasma ([3]; time 0.0 min): 100.0%
Compound 001 (%) (metabolite mesembrine), Rat Plasma ([3]; time 10 min): >99%
Compound 001 (%) (metabolite mesembrine), Rat Plasma ([3]; time 30 min): >99%
Compound 001 (%) (metabolite mesembrine), Rat Plasma ([3]; time 60 min): 97.3%
Compound 001 (%) (metabolite mesembrine), Rat Plasma ([3]; time 120 min): >99%
Compound 001 (%) (metabolite mesembrine), Rat Plasma ([3]; time 240 min): 98.3%
001 brain levels quantifiable up to [4]: 2 h
hydrolysis in the Hydrolysis Assay ([5]; pH 2.0 in 0.01 M HCl to pH 7.4 in 20 mM PBS, 25° C. to 40° C.): did not further hydrolyze
Conversion (%) ([5]; pH = 2.0, 25° C., 0.01M HCl): 0%
Notes (hydrolysis) ([5]; pH = 2.0, 25° C., 0.01M HCl): Stable
Conversion (%) ([5]; pH = 2.0, 40° C., 0.01M HCl): 0%
Notes (hydrolysis) ([5]; pH = 2.0, 40° C., 0.01M HCl): Stable
Conversion (%) ([5]; pH = 7.4, 25° C., PBS (20 mM)): 0%
Notes (hydrolysis) ([5]; pH = 7.4, 25° C., PBS (20 mM)): Stable
Conversion (%) ([5]; pH = 7.4, 40° C., PBS (20 mM)): 0%
Notes (hydrolysis) ([5]; pH = 7.4, 40° C., PBS (20 mM)): Stable
quantifiable levels of 001 in brain up to [6, 11]: 60 min
quantifiable levels of 001 in plasma up to [6, 11]: 30 min
Plasma levels of 001 ([6]; at 60, 120, 180 min, 2 mg/kg iv of 001, mice): not detectable
Brain levels of 001 ([6]; at 120, 180 min, 2 mg/kg iv of 001, mice): not detectable
001 quantifiable in brain up to [7, 12]: 60 min
001 quantifiable in plasma up to [7, 12]: 2 h
Brain levels of 001 ([7]; at 90, 120, 180 min, 10 mg/kg po of 001, mice): not detectable
Plasma levels of 001 ([7]; at 180 min, 10 mg/kg po of 001, mice): not detectable
bioavailability (% F) ([7]; mice, oral 10 mg/kg): < 10%
Brain concentrations quantifiable up to [8]: 4 h
brain exposure-Kp [8]: 2.55
AUClast ([8]; brain): 498.04 ng·h/mL
Cmax ([8]; brain): 602.12 ng/mL
Tmax ([8]; brain): 30 min
AUClast ([8]; plasma): 195.38 ng·h/mL
Cmax ([8]; plasma): 230.83 ng/mL
Tmax ([8]; plasma): 30 min
Mouse Plasma Prodrug (%) ([9]; 0 min): 100.0%
Mouse Plasma Prodrug (%) ([9]; 15 min): >99%
Mouse Plasma Prodrug (%) ([9]; 30 min): 97.8%
Mouse Plasma Prodrug (%) ([9]; 60 min): >99%
Mouse Plasma Prodrug (%) ([9]; 120 min): >99%
Mouse Plasma Prodrug (%) ([9]; 240 min): >99%
Compound 001 (%) (metabolite mesembrine), Human Plasma ([10]; time 0.0 min): 100.0%
Compound 001 (%) (metabolite mesembrine), Human Plasma ([10]; time 10 min): >99%
Compound 001 (%) (metabolite mesembrine), Human Plasma ([10]; time 30 min): >99%
Compound 001 (%) (metabolite mesembrine), Human Plasma ([10]; time 60 min): >99%
Compound 001 (%) (metabolite mesembrine), Human Plasma ([10]; time 120 min): >99%
Compound 001 (%) (metabolite mesembrine), Human Plasma ([10]; time 240 min): >99%
